Entries after “also recorded” stand apart in the source; their conditions may differ.
Legend:
[1] = test system: NOD mice; experiment: Peptide immunisation of NOD mice, diabetes onset; type: in vivo, mouse; conditions: by week 18; 100 μg peptide intraperitoneally from 3 weeks of age; diabetic = two consecutive blood sugars >15 mM
Protocol: Peptides are administered to female NOD mice in accordance with standard laboratory methods.
Three groups of NOD mice (n=10 per group, purchased from Taconic, Germantown, N.Y., U.S.A.) were immunised beginning at three weeks of age with 100 μg of TUM, NRP-A7, or TV1 (MTV-1) peptide in PBS solution, intraperitoneally once per week for two weeks, then once every two weeks. Mice were monitored for hyperglycaemia weekly and considered to be diabetic after two consecutive blood sugars >15 mM.

[2] = biological target: T1, H-2Kd (Mus musculus, UniProt P01902); experiment: MHC class I stabilization assay on RMAS-Kd cells (FACS); type: binding; conditions: background without peptide 6.07%
T1 construct: expressed in transfected cells; host or cells: RMAS (TAP-deficient murine cell line) transfected with H-2Kd
T1 sequence (P01902 22-368): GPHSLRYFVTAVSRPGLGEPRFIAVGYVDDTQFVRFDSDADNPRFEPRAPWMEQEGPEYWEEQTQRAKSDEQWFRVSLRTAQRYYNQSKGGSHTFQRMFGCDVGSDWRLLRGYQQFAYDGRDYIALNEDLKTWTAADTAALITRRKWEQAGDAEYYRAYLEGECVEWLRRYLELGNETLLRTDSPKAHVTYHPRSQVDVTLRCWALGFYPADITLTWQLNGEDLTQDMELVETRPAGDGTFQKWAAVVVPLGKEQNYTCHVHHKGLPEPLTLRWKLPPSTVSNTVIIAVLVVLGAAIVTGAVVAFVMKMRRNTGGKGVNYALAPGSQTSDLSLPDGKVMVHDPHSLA
T1 sequence (P01887 21-119 partner): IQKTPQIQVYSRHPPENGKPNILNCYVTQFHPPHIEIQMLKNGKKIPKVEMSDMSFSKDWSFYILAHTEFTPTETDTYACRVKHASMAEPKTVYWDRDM
Protocol: A peptide (for example, TUM, V7, INSL, TV1, TV2, or TV3) is added and the cells are incubated at room temperature for 1 hour, and then incubated at 37° C. for 3 hours. The cells are washed 3 times with 0.3% bovine serum albumin-phosphate buffer solution (BSA-PBS), and then stained with fluorescently labelled anti-mouse H-2Kd-FITC antibody. Fluorescent-activated cell sorting (FACS) analysis is performed to count the percentage of cells showing positive staining.
FACS analysis was performed to quantify the percentage/proportion of antigen presenting cells (RMAS-Kd) that express stable MHC class I on their cell surface, in association with the TV1 peptide. RMAS-Kd is a transporter for antigen presentation (TAP)-deficient RMAS cell line transfected with the mouse MHC class I molecule, H-2Kd. Because the cell line is TAP deficient it cannot assemble MHC class I (in this case H-2Kd) complexes stably but requires surface stabilisation by exogenous peptides that can bind with the H-2Kd heavy chain and beta-2 microglobulin. The cell line was stained for MHC class I expression with or without TV1 peptide.

[3] = test system: autoreactive T cells in NOD pancreatic islets; experiment: Interferon-gamma ELISPOT with T cells of NOD pancreatic islets; type: cell-based, mouse; conditions: FIG. 5
[4] = test system: HLA-A2 restricted CD8+ T cells (PBMC); conditions: for T cell responses in diabetic patients and controls: non-diabetic and non-HLA matched controls
[5] = test system: CTL from pancreatic islets of NOD mice; experiment: H-2Kd tetramer staining of NOD islet cells; type: cell-based, mouse; conditions: H-2Kd tetramers, islet cells ex vivo or after in vitro culture, FIG. 12
Description: MHC class I tetramers (for example, H-2Kd tetrameric complexes) are synthesised as previously described by Altman et al. (Science 274:94-96, 1996). MHC heavy chain, modified by the addition of a C-terminal biotinylation site, and beta 2 microglobulin are expressed separately in E. coli (BL21, Stratagene, La Jolla, Calif., U.S.A.). Peptides were synthesized synthesised on a Perkin-Elmer-ABI 431A by the NAPS Unit, University of British Columbia, BC, Canada. Purified heavy chain, beta 2 microglobulin and peptide are refolded at 4° C. for 48 hours in a TRIS-based buffer, and the refolded product is concentrated, biotinylated using BirA enzyme (Avidity, Denver, Colo., U.S.A.) in the presence of biotin, ATP and Mg++ and purified by FPLC. Streptavidin-phycoerythrin conjugate is added in a 1:4 molar ratio and the tetrameric product is concentrated to approximately 1 mg/ml. The tetramer concentration is calculated based upon the concentration of biotinylated protein, quantified by Bradford assay, prior to addition of streptavidin.
Single cell suspensions of lymphocytes are incubated with 1 μl of a 1 mg/ml solution of MHC tetramer for 2-3 hours at 4° C. in FACS staining buffer (HBSS/FBS 2%/Sodium Azide 0.01%/EDTA 100 mM). The cells are centrifuged and washed three times before staining with antibody to CD8. […]

[6] = test system: murine autoreactive T cells (NOD spleen cells); experiment: Interferon-gamma ELISPOT with NOD spleen cells; type: cell-based, mouse
Description: The effector cells (CTL) of the ELISPOT assay are contained within spleen cells from NOD mice aged 10 weeks. The spleens from these mice contain a proportion of autoreactive CTL destined to destroy pancreatic beta cells.
The peptide NRP-V7 was used as a positive control and is a previously described synthetic autoepitope (automimotope) of NOD mice (Amrani et al., 2000). NRP-V7 was not derived from any endogenous mammalian protein sequence but was identified by screening combinatorial peptide libraries. The peptide TUM was used as a negative control. TUM is derived from an endogenous tumour peptide not known to participate in type 1 diabetes but known to bind to the MHC class I molecule, H-2Kd.

[7] = biological target: T2, HLA-A*0201 (Homo sapiens, UniProt P04439, D140Y/D185E/D98H/E176V/E277Q/G131W/G231S/I119V/I121R/I166T/I218V/L300P/L318F/N151K/N90K/P208A/P217A/Q86G/Q94H/R138H/R169H/T345S); experiment: Temporal stability (dissociation) of peptide/HLA-A*0201 complexes on T2 cells; type: binding; conditions: in 4 hours at 37° C., T2 cells with emetine, normalized to CMV/HLA-A2
T2 construct: cell membrane stabilization of the HLA-A2 molecule in TAP-deficient 174×CEM.T2 cells; endogenous in cells; host or cells: 174×CEM.T2 (T2) cells, TAP-deficient
Protocol: The stability of complexes formed with the peptides and HLA-A2 on T2 cells was assessed, over a 4-hour period at 37° C. After peptide removal and addition of emetine to inhibit protein synthesis, T2 cells were cultured at 37° C. and the HLA-A2 expression was determined at different incubation times using anti-HLA-A2 antibody. The stability of the various peptide/HLA-A2 complexes were then normalized relative to that observed for CMV/HLA-A2 complexes set as 100%.
The temporal stability of peptide/HLA-A*0201 complexes was assessed as previously described (Valmori, supra). Briefly, T2 cells were cultured with synthetic peptides overnight at room temperature as performed for peptide binding assay. The following day, after removing peptide and adding emetine (10^−4 M; Sigma-Aldrich, Oakville, Ontario, Canada) to block protein synthesis, cells were incubated at 37° C. for the indicated time periods. At each time point, an aliquot of cells was washed and stained with FITC-conjugated anti-HLA-A2 monoclonal antibody (BB7.2). Surface HLA-A2 expression was assessed by flow cytometry (FACSCalibur) and MFI was recorded. The CMV peptide was used as a positive control. Results are expressed as relative complex stability =100×[(MFI with given peptide—MFI without peptide)/(MFI with CMV peptide—MFI without peptide)].

[8] = test system: human autoreactive T cells (PBMC); experiment: Interferon gamma ELISPOT of PBMC from type 1 diabetes patients (Example 5); type: cell-based; conditions: 1 μM peptide, PBMC 20,000 per well, recent onset type 1 diabetes patients, FIG. 8
[9] = biological target: T2, HLA-A*0201; experiment: FACS assay of peptide binding to HLA-A2 on T2 cells (Example 6)

NRP-A7: positive control peptide; known synthetic peptide autoantigen recognized in the context of H-2Kd (KYNKANAFL; NRP-A7 peptide)
immunized mice considered diabetic [1]: 20%

LYLVCGERG [INSL]
proportion of H-2Kd on the surface of the APC in the presence of peptide [2]: 73.68% | proportion of H-2Kd on the surface of the APC in the presence of peptide ([2]; listed as INS-L): 73% | interferon-gamma secretion by autoreactive T cells in NOD pancreatic islets [3]: minimally

DLMGYIPLV [HCV, reference compound]
subjects responding to the peptide ([4]; first study, all subjects): None of the subjects responded

KYPAVLLIL (modified version of precursor peptide TV1 (TV2))
recognition by CD8+ T cells (tetramer staining) [5]: recognize | proportion of H-2Kd on the surface of the APC in the presence of peptide [2]: 58%

KLPAVLLIL (mTV-1 peptide epitope) [TV1]
recognition by murine autoreactive T cells (interferon-gamma secretion) ([6]; FIG. 1): recognise | recognition by murine autoreactive T cells (interferon-gamma secretion) ([6]; FIG. 1, listed as TV-1): high frequency of CTL that recognise TV-1 | proportion of H-2Kd on the surface of the APC in the presence of peptide [2]: 64% | immunized mice considered diabetic [1]: 80%

RLLPLLALL (mouse insulin derived peptide) [TV3]
proportion of H-2Kd on the surface of the APC in the presence of peptide [2]: 70%

ALWMRLLPL [Insulin2]
non-diabetic control subjects that responded ([4]; second study): three of the five | dissociation of peptide/HLA-A2 complexes [7]: about 20%

GMAELMAGL [Phogrin331]
T cell responses in diabetic patients and controls ([4]; second study): could not be detected | dissociation of peptide/HLA-A2 complexes [7]: about 20%

TUM: negative control; derived from an endogenous tumour peptide, known to bind H-2Kd (KYQAVTTTL)
proportion of H-2Kd on the surface of the APC in the presence of peptide [2]: 66% | immunized mice considered diabetic [1]: none

KYNKANVFL [NRP-V7, positive control]
recognition by murine autoreactive T cells (interferon-gamma secretion) ([6]; FIG. 1): Interferon-gamma is also secreted; also recorded: recognise | proportion of H-2Kd on the surface of the APC in the presence of peptide [2]: 72% | proportion of H-2Kd on the surface of the APC in the presence of peptide ([2]; listed as V7): 72.71% | interferon-gamma secretion by autoreactive T cells in NOD pancreatic islets [3]: secrete interferon-gamma

RLLCALTSL [IGRP293]
T cell responses in diabetic patients and controls ([4]; second study): could not be detected | dissociation of peptide/HLA-A2 complexes [7]: about 20%

KLQVFLIVL (HTV-1 peptide epitope) [IAPP5]
recognition by human autoreactive T cells (interferon-gamma ELISPOT) [8]: elevated HTV1 autoreactivity; also recorded: recognise | binding to HLA-A2 ([9]; FIG. 11, listed as HTV 1): bind to HLA-A2 | binding to HLA-A2 ([9]; FIG. 11, listed as HTV1): binds

LLPPLLEHL [IA-2(180)]
T cell responses in diabetic patients and controls ([4]; second study): could not be detected
